Assays:
[1] = system: Staphylococcus aureus ATCC 6538; test: DGHM suspension test, microbicidal activity; format: cell-based
Procedure: (§1) The microbicidal activity of the quanterary carboxylic acid alkanolamine ester salts used in accordance with the invention was tested against the following selected test germs:
(§2) The effectiveness of the compound to be tested was determined by the suspension test in accordance with the guidelines of the Deutsche Gesellschaft for Hygiene and Mikrobiologie (DGHM). Test solutions containing quatemary carboxylic acid alkanolamine ester salts in the quantities shown in the Tables of 50, 100, 200, 400 and 800 mg/l were prepared using water with a hardness of 17° dH and optionally isopropanol.
(§3) At room temperatures, quantities of 0.1 ml test germ suspension were pipetted into test tubes containing 10 ml of the test solutions described above and mixed. After various contact times of 5, 15, 30 and 60 minutes, 1 ml of material was taken from the test tubes by pipette and transferred to 9 ml inactivator solution (inactivators: 3.0% Tween, 0.3% lecithin, 0.1% histidine). After in activation for at least 5 and at most 30 minutes, the living germ count was determined by plating out onto casein peptone-soybean flour peptone (CaSo)-agar plates. Using a spiral plater, the inactivating mixture was directly plated out onto CaSo-agar. The samples were incubated for 24 to 72 hours at 37° C. and macroscopically evaluated for growth. The destruction time or the residual germ count was determined in this way. The germ count of an unchallenged water control is related to the germ count of the inactivated test solution taking the dilution into account. The higher the value, the better the microbicidal effect. The symbol < means that the logarithmic reductuon factor is below the indicated value or, in the case of the symbol >, above the indicated value. The abbreviation CU stands for “concentration used”.

[2] = system: Pseudomonas aeruginosa ATCC 15442; test: DGHM suspension test, microbicidal activity; format: cell-based
Procedure: as §1, §2, §3

[3] = CU 50 mg/l, contact time 5 mins.
[4] = CU 50 mg/l, contact time 15 mins.
[5] = CU 50 mg/l, contact time 30 mins.
[6] = CU 50 mg/l, contact time 60 mins.
[7] = CU 100 mg/l, contact time 5 mins.
[8] = CU 100 mg/l, contact time 15 mins.
[9] = CU 100 mg/l, contact time 30 mins.
[10] = CU 100 mg/l, contact time 60 mins.
[11] = CU 200 mg/l, contact time 5 mins.
[12] = CU 200 mg/l, contact time 15 mins.
[13] = CU 200 mg/l, contact time 30 mins.
[14] = CU 200 mg/l, contact time 60 mins.
[15] = CU 400 mg/l, contact time 5 mins.
[16] = CU 400 mg/l, contact time 15 mins.
[17] = CU 400 mg/l, contact time 30 mins.
[18] = CU 400 mg/l, contact time 60 mins.
[19] = CU 800 mg/l, contact time 5 mins.
[20] = CU 800 mg/l, contact time 15 mins.
[21] = CU 800 mg/l, contact time 30 mins.
[22] = CU 800 mg/l, contact time 60 mins.

SMILES | logarithmic reduction factor [1, 3] | logarithmic reduction factor [1, 4] | logarithmic reduction factor [1, 5] | logarithmic reduction factor [1, 6] | logarithmic reduction factor [1, 7] | logarithmic reduction factor [1, 8] | logarithmic reduction factor [1, 9] | logarithmic reduction factor [1, 10] | logarithmic reduction factor [1, 11] | logarithmic reduction factor [1, 12] | logarithmic reduction factor [1, 13] | logarithmic reduction factor [1, 14] | logarithmic reduction factor [2, 7] | logarithmic reduction factor [2, 8] | logarithmic reduction factor [2, 9] | logarithmic reduction factor [2, 10] | logarithmic reduction factor [2, 11] | logarithmic reduction factor [2, 12] | logarithmic reduction factor [2, 13] | logarithmic reduction factor [2, 14] | also measured
CCCCCCCCCC(=O)OCC[N+](C)(CCOC(=O)CCCCCCCCC)CCOC(=O)CCCCCCCCC.COS(=O)(=O)[O-] [Example 9, methyl triethanolammonium tricapric acid ester methosulfate] | <1.39 | <1.59 | <1.51 | <1.60 | <1.39 | <1.59 | <1.51 | 2.09 | <1.39 | <1.59 | 1.83 | 2.97 | <1.88 | <1.93 | <1.80 | <1.90 | <1.88 | <1.93 | <1.80 | 2.94 | logarithmic reduction factor [2, 15]: <1.88; logarithmic reduction factor [2, 16]: <1.93; logarithmic reduction factor [2, 17]: 3.27; logarithmic reduction factor [2, 18]: 3.72
CCCCCCCCCCCC(=O)OCC[N+](C)(CCO)CCOC(=O)CCCCCCCCCCC.COS(=O)(=O)[O-] [Example 5, methyl triethanolammonium dilauric acid ester methosulfate] | <1.79 | <1.73 | 2.53 | 3.88 | <1.79 | 2.38 | 3.80 | 5.21 | 2.52 | 4.25 | >5.75 | >5.86 | <1.85 | <1.79 | <1.71 | <1.81 | <1.85 | <1.79 | <1.71 | <1.81 | logarithmic reduction factor [1, 15]: 2.70; logarithmic reduction factor [1, 16]: >5.73; logarithmic reduction factor [1, 17]: >5.75; logarithmic reduction factor [1, 18]: >5.86; logarithmic reduction factor [1, 19]: 3.85; logarithmic reduction factor [1, 20]: >5.73; logarithmic reduction factor [1, 21]: >5.75; logarithmic reduction factor [1, 22]: >5.86; logarithmic reduction factor [2, 3]: <1.85; logarithmic reduction factor [2, 4]: <1.79; logarithmic reduction factor [2, 5]: <1.71; logarithmic reduction factor [2, 6]: <1.51; logarithmic reduction factor [2, 15]: <1.85; logarithmic reduction factor [2, 16]: <1.79; logarithmic reduction factor [2, 17]: <1.71; logarithmic reduction factor [2, 18]: 3.84; logarithmic reduction factor [2, 19]: <1.85; logarithmic reduction factor [2, 20]: 3.43; logarithmic reduction factor [2, 21]: 3.95; logarithmic reduction factor [2, 22]: 4.40

From patent publication US6420330B1, “Use of quaternary carboxylic acid alkanolamine ester salts as microbicide agents” (Cognis Deutschland GmbH, priority 1997, dated 2002)
